# Assay results as given in US10597388B2, “Pyridazinone herbicides” (FMC CORPORATION, priority 2014, dated 2020).
# What was measured:
# Assay type in all cases: in vivo
# kochia (Kochia scoparia) = assay: Test A greenhouse herbicide test, pre- and postemergence
# Excerpt: (§1) Seeds of plant species selected from barnyardgrass (Echinochloa crus-galli), kochia (Kochia scoparia), ragweed (common ragweed, Ambrosia elatior), ryegrass, Italian (Italian ryegrass, Lolium multiflorum), crabgrass, large (large crabgrass, Digitaria sanguinalis), foxtail, giant (giant foxtail, Setaria faberii), momingglory (Ipomoea spp.), pigweed (Amaranthus retroflexus), velvetleaf (Abutilon theophrasti), wheat (Triticum aestivum), and corn (Zea mays) were planted into a blend of loam soil and sand and treated preemergence with a directed soil spray using test chemicals formulated in a non-phytotoxic solvent mixture which included a surfactant.
# (§2) At the same time, plants selected from these crop and weed species and also blackgrass (Alopecurus myosuroides), and galium (catchweed bedstraw, Galium aparine) were planted in pots containing the same blend of loam soil and sand and treated with postemergence applications of test chemicals formulated in the same manner. Plants ranged in height from 2 to 10 cm and were in the one- to two-leaf stage for the postemergence treatment. Treated plants and untreated controls were maintained in a greenhouse for approximately 10 d, after which time all treated plants were compared to untreated controls and visually evaluated for injury. Plant response ratings, summarized in Table A, are based on a 0 to 100 scale where 0 is no effect and 100 is complete control. A dash (-) response means no test result.
# [1] = test system: barnyardgrass (Echinochloa crus-galli); assay: as above
# Excerpt: as §1, §2
# [2] = test system: pigweed (Amaranthus retroflexus); assay: as above
# Excerpt: as §1, §2
# [3] = test system: wheat (Triticum aestivum); assay: as above; details: Postemergence; for Plant response rating, Wheat: 125 g ai/ha, 0 to 100 scale where 0 is no effect and 100 is complete control; for Wheat plant response rating: 500 g ai/ha, 0 to 100 scale, 0 is no effect, 100 is complete control
# Excerpt: as §1, §2
# [4] = test system: foxtail, giant (giant foxtail, Setaria faberii); assay: as above
# Excerpt: as §1, §2
# [5] = test system: ragweed (common ragweed, Ambrosia elatior); assay: as above
# Excerpt: as §1, §2
# corn (Zea mays) = assay: as above; details: Postemergence; for Plant response rating, Corn: 125 g ai/ha; for Corn plant response rating: 500 g ai/ha, 0 to 100 scale, 0 is no effect, 100 is complete control
# Excerpt: as §1, §2
# [6] = test system: ryegrass, Italian (Italian ryegrass, Lolium multiflorum); assay: as above
# Excerpt: as §1, §2
# [7] = test system: galium (catchweed bedstraw, Galium aparine); assay: Test A greenhouse herbicide test, postemergence; details: for Plant response rating, Galium: 125 g ai/ha; for Galium plant response rating: 500 g ai/ha, 0 to 100 scale, 0 is no effect, 100 is complete control
# Excerpt: as §2
# [8] = test system: blackgrass (Alopecurus myosuroides); assay: Test A greenhouse herbicide test, postemergence; details: for Plant response rating, Blackgrass: 125 g ai/ha; for Blackgrass plant response rating: 500 g ai/ha, 0 to 100 scale, 0 is no effect, 100 is complete control
# Excerpt: as §2
# [9] = Postemergence, 125 g ai/ha, visual rating after approx. 10 d, 0 to 100 scale (0 no effect, 100 complete control)
# [10] = Postemergence, 500 g ai/ha, 0 to 100 scale, 0 is no effect, 100 is complete control
# [11] = Preemergence, 125 g ai/ha, 0 to 100 scale where 0 is no effect and 100 is complete control
# [12] = Preemergence, 500 g ai/ha, 0 to 100 scale, 0 no effect, 100 complete control
# [13] = visual rating after approx. 10 d, 0 to 100 scale (0 no effect, 100 complete control)
# [14] = Postemergence, 125 g ai/ha, 0 to 100 scale where 0 is no effect and 100 is complete control
# [15] = 0 to 100 scale where 0 is no effect and 100 is complete control
# [16] = Preemergence, 500 g ai/ha, 0 to 100 scale where 0 is no effect and 100 is complete control
SMILES,Kochia plant response rating (kochia (Kochia scoparia); [10]),Kochia plant response rating (kochia (Kochia scoparia); [11]),"Plant response rating, Kochia (kochia (Kochia scoparia); [12])","Barnyardgrass plant response rating [1, 10]","Barnyardgrass plant response rating [1, 11]","Plant response rating, Barnyardgrass [1, 12]","Pigweed plant response rating [2, 10]","Pigweed plant response rating [2, 11]","Plant response rating, Wheat [3]",Wheat plant response rating [3],"Foxtail, Giant plant response rating [4, 10]","Foxtail, Giant plant response rating [4, 11]","Ragweed plant response rating [5, 10]","Ragweed plant response rating [5, 11]",Corn plant response rating (corn (Zea mays)),"Plant response rating, Ryegrass, Italian [6, 14]","Ryegrass, Italian plant response rating [6, 10]","Ryegrass, Italian plant response rating [6, 11]",Galium plant response rating [7],Blackgrass plant response rating [8],other results
COc1nn(C)c(=O)c(-c2c(C)ccc3ccc(C)cc23)c1O [Compound 30],80,0,40,30,0,10,90,80,10,10,60,0,70,0,0,70,60,30,90,60,"Plant response rating, Kochia (kochia (Kochia scoparia); [9]): 60; Plant response rating, Barnyardgrass [1, 9]: 0; Plant response rating, Pigweed [2, 9]: 90; Plant response rating, Pigweed [2, 12]: 90; Plant response rating, Foxtail, Giant [4, 9]: 0; Plant response rating, Foxtail, Giant [4, 12]: 60; Plant response rating, Ragweed [5, 9]: 40; Plant response rating, Ragweed [5, 12]: 70; Plant response rating, Corn (corn (Zea mays); [13]): 0; Plant response rating, Ryegrass, Italian [6, 12]: 50; Plant response rating, Galium [7, 13]: 70; Plant response rating, Blackgrass [8, 13]: 20"
CCc1ccc2ccccc2c1-c1c(OC(=O)C2CC2)c(C)nn(C)c1=O [Compound 38],80,40,40,40,0,10,50,0,10,20,50,0,70,0,10,0,50,40,100,60,"Plant response rating, Kochia (kochia (Kochia scoparia); [9]): 30; Plant response rating, Barnyardgrass [1, 9]: 0; Plant response rating, Pigweed [2, 9]: 50; Plant response rating, Pigweed [2, 12]: 80; Plant response rating, Foxtail, Giant [4, 9]: 0; Plant response rating, Foxtail, Giant [4, 12]: 40; Plant response rating, Ragweed [5, 9]: 40; Plant response rating, Ragweed [5, 12]: 70; Plant response rating, Corn (corn (Zea mays); [13]): 0; Plant response rating, Ryegrass, Italian [6, 12]: 70; Plant response rating, Galium [7, 13]: 80; Plant response rating, Blackgrass [8, 13]: 50"
Cc1ccc2oc(C)c(-c3c(O)c(-c4ccccc4)nn(C)c3=O)c2c1 [Compound 61],0,0,0,0,0,0,0,0,0,0,0,0,0,0,0,0,0,0,0,0,"Plant response rating, Kochia (kochia (Kochia scoparia); [14]): 0; Plant response rating, Barnyardgrass [1, 14]: 0; Plant response rating, Pigweed [2, 14]: 0; Plant response rating, Pigweed [2, 12]: 0; Plant response rating, Foxtail, Giant [4, 14]: 0; Plant response rating, Foxtail, Giant [4, 12]: 0; Plant response rating, Ragweed [5, 14]: 0; Plant response rating, Ragweed [5, 12]: 0; Plant response rating, Corn (corn (Zea mays); [15]): 0; Plant response rating, Ryegrass, Italian [6, 12]: 0; Plant response rating, Galium [7, 15]: 0; Plant response rating, Blackgrass [8, 15]: 0"
CCc1nn(CC)c(=O)c(-c2c(C)oc3ccc(C)cc23)c1O [Compound 64],0,0,0,0,0,0,0,0,0,0,0,0,0,0,0,0,0,0,0,0,"Plant response rating, Kochia (kochia (Kochia scoparia); [14]): 0; Plant response rating, Barnyardgrass [1, 14]: 0; Plant response rating, Pigweed [2, 14]: 0; Plant response rating, Pigweed [2, 12]: 0; Plant response rating, Foxtail, Giant [4, 14]: 0; Plant response rating, Foxtail, Giant [4, 12]: 0; Plant response rating, Ragweed [5, 14]: 0; Plant response rating, Ragweed [5, 12]: 0; Plant response rating, Corn (corn (Zea mays); [15]): 0; Plant response rating, Ryegrass, Italian [6, 12]: 0; Plant response rating, Galium [7, 15]: 0; Plant response rating, Blackgrass [8, 15]: 0"
Cc1nn(C)c(=O)c(-c2cccc3ccc(I)cc23)c1O [Compound 70],60,10,,10,0,30,80,60,0,0,25,0,70,70,0,60,80,60,90,30,"Plant response rating, Kochia (kochia (Kochia scoparia); [14]): 50; Plant response rating, Kochia (kochia (Kochia scoparia); [16]): 40; Plant response rating, Barnyardgrass [1, 14]: 0; Plant response rating, Pigweed [2, 14]: 80; Plant response rating, Pigweed [2, 16]: 100; Plant response rating, Foxtail, Giant [4, 14]: 30; Plant response rating, Foxtail, Giant [4, 16]: 30; Plant response rating, Ragweed [5, 14]: 40; Plant response rating, Ragweed [5, 16]: 80; Plant response rating, Corn (corn (Zea mays); [15]): 0; Plant response rating, Ryegrass, Italian [6, 16]: 90; Plant response rating, Galium [7, 15]: 70; Plant response rating, Blackgrass [8, 15]: 10"
Cc1nn(C)c(=O)c(-c2cccc3ccc(C4CC4)cc23)c1O [Compound 71],70,0,,20,0,20,80,30,0,20,20,0,70,0,20,30,90,0,90,40,"Plant response rating, Kochia (kochia (Kochia scoparia); [14]): 50; Plant response rating, Kochia (kochia (Kochia scoparia); [16]): 20; Plant response rating, Barnyardgrass [1, 14]: 0; Plant response rating, Pigweed [2, 14]: 70; Plant response rating, Pigweed [2, 16]: 100; Plant response rating, Foxtail, Giant [4, 14]: 0; Plant response rating, Foxtail, Giant [4, 16]: 50; Plant response rating, Ragweed [5, 14]: 70; Plant response rating, Ragweed [5, 16]: 20; Plant response rating, Corn (corn (Zea mays); [15]): 0; Plant response rating, Ryegrass, Italian [6, 16]: 70; Plant response rating, Galium [7, 15]: 70; Plant response rating, Blackgrass [8, 15]: 30"
